Test results: ChEMBL document CHEMBL5303765, “Data for DCP probe BAY-7081” (2023)

Columns and labels:
[1] = biological target: T1, Serine/threonine-protein kinase 4 (Homo sapiens) (UniProt Q13043); experiment: STK4 SGC Tm panel (DSF); details: for ΔTm: Compound concentration 10.0 uM
T1 sequence (whole entry): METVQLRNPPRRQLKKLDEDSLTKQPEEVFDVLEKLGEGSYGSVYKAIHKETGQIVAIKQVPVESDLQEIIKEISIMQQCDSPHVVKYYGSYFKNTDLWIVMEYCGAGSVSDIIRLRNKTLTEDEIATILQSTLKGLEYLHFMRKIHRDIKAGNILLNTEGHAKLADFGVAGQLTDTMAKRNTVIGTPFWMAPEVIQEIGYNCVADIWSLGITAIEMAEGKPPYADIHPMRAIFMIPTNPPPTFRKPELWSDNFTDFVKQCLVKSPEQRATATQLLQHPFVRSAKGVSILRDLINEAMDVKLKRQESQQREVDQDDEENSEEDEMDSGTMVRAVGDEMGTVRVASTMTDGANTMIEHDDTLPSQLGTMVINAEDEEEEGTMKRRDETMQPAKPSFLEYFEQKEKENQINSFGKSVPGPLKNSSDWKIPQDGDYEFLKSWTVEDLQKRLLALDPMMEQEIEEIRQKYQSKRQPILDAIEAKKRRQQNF

[2] = biological target: Ephrin type-A receptor 5 (Homo sapiens) (UniProt P54756); experiment: EPHA5 SGC Tm panel (DSF); details: for ΔTm: Compound concentration 10.0 uM
Chain of Ephrin type-A receptor 5 (Homo sapiens) (P54756 whole entry): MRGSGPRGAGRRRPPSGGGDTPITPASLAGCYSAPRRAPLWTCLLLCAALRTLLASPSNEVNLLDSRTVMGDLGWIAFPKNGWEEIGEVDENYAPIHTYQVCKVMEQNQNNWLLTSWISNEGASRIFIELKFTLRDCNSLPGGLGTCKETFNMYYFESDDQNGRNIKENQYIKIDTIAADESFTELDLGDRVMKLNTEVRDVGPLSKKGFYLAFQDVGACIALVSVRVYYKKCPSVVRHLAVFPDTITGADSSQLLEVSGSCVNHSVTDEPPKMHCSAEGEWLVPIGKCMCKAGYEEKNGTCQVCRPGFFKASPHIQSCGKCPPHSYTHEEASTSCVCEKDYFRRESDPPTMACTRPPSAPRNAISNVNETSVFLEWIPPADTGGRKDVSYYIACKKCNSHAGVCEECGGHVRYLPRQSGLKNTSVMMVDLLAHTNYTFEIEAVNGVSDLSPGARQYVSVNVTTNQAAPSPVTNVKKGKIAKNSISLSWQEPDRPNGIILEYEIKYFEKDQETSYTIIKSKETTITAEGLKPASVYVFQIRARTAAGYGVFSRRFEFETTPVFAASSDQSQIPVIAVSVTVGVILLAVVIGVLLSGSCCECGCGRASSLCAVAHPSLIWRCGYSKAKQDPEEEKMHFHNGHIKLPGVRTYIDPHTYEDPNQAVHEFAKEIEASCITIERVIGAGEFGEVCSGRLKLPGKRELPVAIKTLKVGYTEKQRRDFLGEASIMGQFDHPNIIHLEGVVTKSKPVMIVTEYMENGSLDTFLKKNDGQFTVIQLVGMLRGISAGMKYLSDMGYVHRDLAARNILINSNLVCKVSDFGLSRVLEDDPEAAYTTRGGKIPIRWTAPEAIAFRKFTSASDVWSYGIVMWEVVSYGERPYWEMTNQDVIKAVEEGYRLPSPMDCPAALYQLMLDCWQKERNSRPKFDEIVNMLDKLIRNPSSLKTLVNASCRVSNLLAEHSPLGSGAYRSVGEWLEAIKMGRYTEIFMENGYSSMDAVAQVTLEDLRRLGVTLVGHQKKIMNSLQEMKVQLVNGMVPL

[3] = biological target: T2, Ephrin type-B receptor 3 (Homo sapiens) (UniProt P54753); experiment: EPHB3 SGC Tm panel (DSF); details: for ΔTm: Compound concentration 10.0 uM
T2 sequence (whole entry): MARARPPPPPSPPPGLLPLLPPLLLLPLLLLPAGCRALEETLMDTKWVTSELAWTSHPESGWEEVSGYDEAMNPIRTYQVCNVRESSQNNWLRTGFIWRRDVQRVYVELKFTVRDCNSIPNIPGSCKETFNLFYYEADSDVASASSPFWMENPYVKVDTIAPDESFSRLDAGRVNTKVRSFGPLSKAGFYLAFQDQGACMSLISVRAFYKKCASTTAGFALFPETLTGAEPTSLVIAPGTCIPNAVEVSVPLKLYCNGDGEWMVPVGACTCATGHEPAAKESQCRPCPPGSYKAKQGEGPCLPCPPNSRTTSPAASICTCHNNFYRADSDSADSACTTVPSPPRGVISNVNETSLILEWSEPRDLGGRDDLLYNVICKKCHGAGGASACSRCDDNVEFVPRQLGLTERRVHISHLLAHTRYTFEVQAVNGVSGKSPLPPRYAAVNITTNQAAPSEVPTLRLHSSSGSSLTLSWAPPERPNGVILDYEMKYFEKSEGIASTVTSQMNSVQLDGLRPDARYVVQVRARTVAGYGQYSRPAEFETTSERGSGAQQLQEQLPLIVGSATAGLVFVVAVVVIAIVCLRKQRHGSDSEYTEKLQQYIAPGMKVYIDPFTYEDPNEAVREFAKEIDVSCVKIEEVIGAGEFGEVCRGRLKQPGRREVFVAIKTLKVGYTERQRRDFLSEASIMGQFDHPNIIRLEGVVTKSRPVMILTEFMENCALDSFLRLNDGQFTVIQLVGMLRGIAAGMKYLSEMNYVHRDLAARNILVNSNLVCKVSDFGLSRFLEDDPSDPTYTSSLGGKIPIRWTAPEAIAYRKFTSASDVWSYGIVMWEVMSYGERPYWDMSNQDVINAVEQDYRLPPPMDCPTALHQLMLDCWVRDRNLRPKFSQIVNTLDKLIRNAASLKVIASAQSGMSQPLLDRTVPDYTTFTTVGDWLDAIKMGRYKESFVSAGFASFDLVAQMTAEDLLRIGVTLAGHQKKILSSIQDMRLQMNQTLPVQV

[4] = biological target: T3, Ribosyldihydronicotinamide dehydrogenase [quinone] (Homo sapiens) (UniProt P16083); experiment: NQO2 SGC Tm panel (DSF); details: for ΔTm: Compound concentration 10.0 uM
T3 sequence (whole entry): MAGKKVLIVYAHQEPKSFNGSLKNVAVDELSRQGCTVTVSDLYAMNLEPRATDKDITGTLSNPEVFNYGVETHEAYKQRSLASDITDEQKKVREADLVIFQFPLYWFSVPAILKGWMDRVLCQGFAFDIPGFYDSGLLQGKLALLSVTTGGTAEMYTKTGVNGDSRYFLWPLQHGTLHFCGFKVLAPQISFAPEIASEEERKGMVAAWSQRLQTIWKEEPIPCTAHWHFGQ

[5] = biological target: Delta-type opioid receptor (Homo sapiens) (UniProt P41143); details: Compound concentration 10.0 uM
Chain of Delta-type opioid receptor (Homo sapiens) (P41143 whole entry): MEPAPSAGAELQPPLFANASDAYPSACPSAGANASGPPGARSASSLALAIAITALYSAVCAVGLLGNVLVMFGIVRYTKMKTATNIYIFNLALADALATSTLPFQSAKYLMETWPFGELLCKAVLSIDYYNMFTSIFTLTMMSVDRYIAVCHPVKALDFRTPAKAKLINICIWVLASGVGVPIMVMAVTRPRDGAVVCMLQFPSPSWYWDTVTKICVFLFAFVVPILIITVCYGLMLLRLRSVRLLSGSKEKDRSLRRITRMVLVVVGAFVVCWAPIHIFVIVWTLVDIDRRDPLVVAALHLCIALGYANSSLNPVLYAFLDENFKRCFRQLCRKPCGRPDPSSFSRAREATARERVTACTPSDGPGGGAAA

[6] = biological target: Histamine H4 receptor (Homo sapiens) (UniProt Q9H3N8); details: Compound concentration 10.0 uM
Chain of Histamine H4 receptor (Homo sapiens) (Q9H3N8 whole entry): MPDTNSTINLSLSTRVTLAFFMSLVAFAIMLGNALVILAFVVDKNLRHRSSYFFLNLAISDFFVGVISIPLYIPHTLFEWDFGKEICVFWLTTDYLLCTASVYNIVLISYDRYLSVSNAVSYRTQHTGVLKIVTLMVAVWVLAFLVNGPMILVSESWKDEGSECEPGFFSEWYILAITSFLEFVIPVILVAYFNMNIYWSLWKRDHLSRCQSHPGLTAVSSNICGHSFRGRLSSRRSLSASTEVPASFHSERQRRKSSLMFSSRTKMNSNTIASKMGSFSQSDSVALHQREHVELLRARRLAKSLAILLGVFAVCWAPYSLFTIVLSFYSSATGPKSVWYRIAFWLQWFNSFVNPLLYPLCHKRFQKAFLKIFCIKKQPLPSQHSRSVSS

[7] = biological target: Casein kinase II subunit alpha (Homo sapiens) (UniProt P68400); experiment: CSNK2A1 SGC Tm panel (DSF); details: for ΔTm: Compound concentration 10.0 uM
Chain of Casein kinase II subunit alpha (Homo sapiens) (P68400 whole entry, looked up): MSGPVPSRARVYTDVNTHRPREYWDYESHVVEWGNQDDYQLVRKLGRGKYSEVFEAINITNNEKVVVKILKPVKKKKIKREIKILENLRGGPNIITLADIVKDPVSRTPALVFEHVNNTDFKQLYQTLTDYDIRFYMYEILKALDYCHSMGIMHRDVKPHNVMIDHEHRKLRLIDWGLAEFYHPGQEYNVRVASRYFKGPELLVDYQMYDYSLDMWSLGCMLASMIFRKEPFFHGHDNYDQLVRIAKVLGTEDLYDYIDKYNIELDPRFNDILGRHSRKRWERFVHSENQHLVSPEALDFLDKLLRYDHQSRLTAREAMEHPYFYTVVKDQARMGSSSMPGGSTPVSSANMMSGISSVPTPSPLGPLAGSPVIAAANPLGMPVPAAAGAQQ

[8] = biological target: Vascular endothelial growth factor receptor 1 (Homo sapiens) (UniProt P17948); experiment: FLT1 SGC Tm panel (DSF); details: for ΔTm: Compound concentration 10.0 uM
Chain of Vascular endothelial growth factor receptor 1 (Homo sapiens) (P17948 whole entry): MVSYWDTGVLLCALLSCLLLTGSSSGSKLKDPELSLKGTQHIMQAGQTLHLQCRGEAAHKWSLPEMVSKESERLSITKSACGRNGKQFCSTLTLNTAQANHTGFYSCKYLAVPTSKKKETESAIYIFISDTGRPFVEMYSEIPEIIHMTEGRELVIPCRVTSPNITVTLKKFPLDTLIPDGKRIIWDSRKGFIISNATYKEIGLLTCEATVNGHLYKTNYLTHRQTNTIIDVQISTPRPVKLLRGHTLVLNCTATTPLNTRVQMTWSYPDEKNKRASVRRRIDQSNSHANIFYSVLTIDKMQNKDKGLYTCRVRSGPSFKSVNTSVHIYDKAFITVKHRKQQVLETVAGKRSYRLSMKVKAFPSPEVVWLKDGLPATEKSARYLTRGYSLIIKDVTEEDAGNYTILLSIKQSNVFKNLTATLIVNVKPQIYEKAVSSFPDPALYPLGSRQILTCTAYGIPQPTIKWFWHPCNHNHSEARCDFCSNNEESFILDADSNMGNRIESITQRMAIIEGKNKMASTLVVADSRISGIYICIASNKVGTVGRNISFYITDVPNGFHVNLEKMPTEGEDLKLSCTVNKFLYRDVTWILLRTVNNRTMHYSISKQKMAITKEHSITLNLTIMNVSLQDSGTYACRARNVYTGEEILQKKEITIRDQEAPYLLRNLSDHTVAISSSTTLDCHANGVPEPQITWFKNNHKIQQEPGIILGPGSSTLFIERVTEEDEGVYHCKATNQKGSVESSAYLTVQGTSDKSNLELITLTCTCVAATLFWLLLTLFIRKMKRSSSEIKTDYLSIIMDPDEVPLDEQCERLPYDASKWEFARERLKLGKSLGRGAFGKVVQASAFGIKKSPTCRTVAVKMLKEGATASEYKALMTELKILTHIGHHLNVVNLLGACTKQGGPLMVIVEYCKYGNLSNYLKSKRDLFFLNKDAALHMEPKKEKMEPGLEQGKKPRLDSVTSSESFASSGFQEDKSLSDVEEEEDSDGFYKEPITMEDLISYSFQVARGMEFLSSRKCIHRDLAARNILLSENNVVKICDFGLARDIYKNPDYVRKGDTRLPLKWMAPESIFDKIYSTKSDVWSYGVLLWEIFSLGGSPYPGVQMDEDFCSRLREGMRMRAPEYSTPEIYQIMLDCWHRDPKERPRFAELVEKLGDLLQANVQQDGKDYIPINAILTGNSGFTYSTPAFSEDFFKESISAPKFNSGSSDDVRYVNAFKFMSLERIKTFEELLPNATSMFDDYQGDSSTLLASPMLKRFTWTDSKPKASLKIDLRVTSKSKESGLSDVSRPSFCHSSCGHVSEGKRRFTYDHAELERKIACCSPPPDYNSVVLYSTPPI

[9] = biological target: T4, Serine/threonine-protein kinase ULK3 (Homo sapiens) (UniProt Q6PHR2); experiment: ULK3 SGC Tm panel (DSF); details: for ΔTm: Compound concentration 10.0 uM
T4 sequence (whole entry): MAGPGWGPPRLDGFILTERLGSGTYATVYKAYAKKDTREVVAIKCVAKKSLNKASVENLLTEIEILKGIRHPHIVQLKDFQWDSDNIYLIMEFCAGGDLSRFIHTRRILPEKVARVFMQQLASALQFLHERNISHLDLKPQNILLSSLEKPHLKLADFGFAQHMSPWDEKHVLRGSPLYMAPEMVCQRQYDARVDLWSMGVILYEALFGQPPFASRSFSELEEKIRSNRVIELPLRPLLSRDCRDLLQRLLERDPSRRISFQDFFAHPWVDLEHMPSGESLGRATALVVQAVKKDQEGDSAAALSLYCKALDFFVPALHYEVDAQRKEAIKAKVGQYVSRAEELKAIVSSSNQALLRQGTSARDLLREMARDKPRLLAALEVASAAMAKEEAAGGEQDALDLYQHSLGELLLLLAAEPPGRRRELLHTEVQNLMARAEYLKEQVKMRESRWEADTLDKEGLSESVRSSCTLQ

[10] = biological target: D(1A) dopamine receptor (Homo sapiens) (UniProt P21728); details: Compound concentration 10.0 uM
Chain of D(1A) dopamine receptor (Homo sapiens) (P21728 whole entry): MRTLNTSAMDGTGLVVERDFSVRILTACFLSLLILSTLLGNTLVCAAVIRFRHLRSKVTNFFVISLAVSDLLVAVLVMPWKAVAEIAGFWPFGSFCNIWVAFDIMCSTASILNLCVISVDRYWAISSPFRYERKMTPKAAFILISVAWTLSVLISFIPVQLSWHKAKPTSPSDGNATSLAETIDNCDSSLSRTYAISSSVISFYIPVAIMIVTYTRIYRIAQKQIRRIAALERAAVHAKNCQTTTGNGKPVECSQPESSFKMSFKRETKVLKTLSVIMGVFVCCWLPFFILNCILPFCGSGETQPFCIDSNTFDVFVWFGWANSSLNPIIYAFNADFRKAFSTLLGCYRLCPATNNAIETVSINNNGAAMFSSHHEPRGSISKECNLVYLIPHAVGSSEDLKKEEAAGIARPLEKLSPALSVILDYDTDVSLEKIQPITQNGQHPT

CCC[C@@H]1CNCc2c1[nH]c(=O)c(C#N)c2N1CCC2(CC1)CC2
delta Tm Staurosporine positive control [1]: 16.2
ΔTm [1]: -0.519
delta Tm Staurosporine positive control [2]: 8.04
ΔTm [2]: -0.589
delta Tm Staurosporine positive control [3]: 7.02
ΔTm [3]: -2.16
delta Tm Staurosporine positive control [4]: -1.11
ΔTm [4]: -0.613
inhibition [5]: 3.91%
inhibition [6]: -8.1%
delta Tm Staurosporine positive control [7]: 4.47
ΔTm [7]: -0.184
delta Tm Staurosporine positive control [8]: 13.1
ΔTm [8]: -0.163
delta Tm Staurosporine positive control [9]: 19.1
ΔTm [9]: -0.0429
inhibition [10]: 11%

CCC[C@H]1CNCc2c1[nH]c(=O)c(C#N)c2N1CCC2(CC1)CC2
delta Tm Staurosporine positive control [1]: 16.2
ΔTm [1]: -0.568
delta Tm Staurosporine positive control [2]: 8.04
ΔTm [2]: -0.544
delta Tm Staurosporine positive control [3]: 7.02
ΔTm [3]: -2.51
delta Tm Staurosporine positive control [4]: -1.11
ΔTm [4]: -0.626
inhibition [5]: -9.99%
inhibition [6]: 14.2%
delta Tm Staurosporine positive control [7]: 4.47
ΔTm [7]: -0.228
delta Tm Staurosporine positive control [8]: 13.1
ΔTm [8]: -0.145
delta Tm Staurosporine positive control [9]: 19.1
ΔTm [9]: -0.0592
inhibition [10]: -2.37%
